# Tested on: IMR32 neuroblastoma cells overexpressing C99-YFP
# Assay: Western blotting of IMR32 cells overexpressing C99-YFP
# Format: cell-based, human
# Details: compound 1 μM, 37° C., 24 h
# Protocol: (A) IMR32 cells overexpressing C99-YFP were grown with 2 ml fresh culture medium in 6-well plates, and treated with 1 μM CL-387,785 or DAPT at 37° C. for 24 h. The cell extracts were analyzed by Western blotting. (B) Conditional media were harvested and processed for determination of secreted Aβ40 using a colorimetric Aβ40-specific ELISA kit. (C) C99-YFP-expressing IMR32 cells (160,000 cells/well) were seeded onto 6-well plates and cultured at 37° C. for 24 h, and infected with ErbB1- or ErbB2-targeting shRNA lentivirus for an additional 48 h. Infection mixtures were replaced with 2 ml fresh culture medium, and infected cells were then incubated at 37° C. for an additional 24 h. The cell extracts were analyzed by Western blotting with anti-GFP antibody. (D) The conditioned media were harvested and processed for determination of secreted Aβ40. Data are the mean±SD from three independent experiments, and were analyzed by Student's t-tests. * p<0.05. […]
# Preparation of cell extracts. […] Following the removal of cell debris by centrifugation, clarified lysates were processed for immunoprecipitation, Western blotting, or quantification of BCA protein content.
# Western blotting analysis. Protein concentration was measured with the BCA Protein Assay Kit (Pierce). […] Quantitative analyses of blot images were processed using Image J software (NIH) to determine the relative densities of immunoreactive bands.
compound,measurement,value
"CC#CC(=O)Nc1ccc2ncnc(Nc3cccc(Br)c3)c2c1 [CL-387,785, N-[4-[(3-bromophenyl)amino]-6-quinazolinyl]-2-butynamide]",level of AICD,significantly reduced
same,level of C99,significantly reduced

# — patent publication US10576082B2, “ErbB2 regulates autophagic flux to modulate the proteostasis of APP-CTFs in alzheimer's disease” (Academia Sinica, priority 2016, dated 2020)
